Test results taken from ChEMBL document CHEMBL1201862, “PubChem BioAssay data set” (2004).
Values joined by “and” are separate entries in the source; they are usually repeats but may differ in a detail not shown here. Equal values may be shown once.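 Cultured in 96-well plates, cells were exposed to test compound for 48 hours across five concentrations. The concentration for 50% growth inhibition is given as GI50.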 Active and inactive are the calls of the source. No stated cut-off is given here; in the data, active = GI50 up to about 1.1 µM and inactive = higher.

How the values were obtained:
Test in all cases: growth of human tumour cells (NCI), 48 h
DLD-1 = test system: DLD-1
DMS-114 = test system: DMS-114
DMS-273 = test system: DMS-273
HOP-18 = test system: HOP-18
M19-MEL = test system: M19-MEL
RXF 631 = test system: RXF 631
SNB-78 = test system: SNB-78
Hs-578T = test system: Hs-578T
T47D = test system: T47D

Measured: GI50

Cc1cccc(C(C)C)c1N1C(=O)C(=O)C(c2nc3ccccc3o2)C(=O)C1=O
inactive: DLD-1 39.4 µM | DMS-114 24.7 µM | DMS-273 93.8 µM | HOP-18 > 100 µM | M19-MEL 55.3 µM | RXF 631 27.2 µM | SNB-78 > 100 µM

Nc1nnc(N)n1N
inactive: DLD-1 > 100 µM | DMS-114 > 100 µM | DMS-273 > 100 µM | M19-MEL > 100 µM | RXF 631 > 100 µM | SNB-78 > 100 µM

CCOC(=O)[C@H]1Nc2ccccc2C2c3ccccc3CC21 (some centres not stated)
inactive: DLD-1 51.4 µM | DMS-114 88.1 µM | DMS-273 74 µM | M19-MEL 74.3 µM | RXF 631 > 100 µM | SNB-78 > 100 µM

NC(CCCC(N)P(=O)(O)O)P(=O)(O)O (configuration not stated)
inactive: DLD-1 > 100 µM | DMS-114 > 100 µM | DMS-273 > 100 µM | HOP-18 > 100 µM | M19-MEL > 100 µM | RXF 631 > 100 µM | SNB-78 > 100 µM

Cc1nc2ccncc2[nH]1
inactive: DLD-1 > 100 µM | DMS-114 > 100 µM | DMS-273 > 100 µM | M19-MEL > 100 µM | RXF 631 > 100 µM

N#Cc1cccc(N2C(=O)c3ccc(C(=O)c4ccc5c(c4)C(=O)N(c4cccc(C#N)c4)C5=O)cc3C2=O)c1
inactive: DLD-1 > 100 µM | DMS-114 > 100 µM | DMS-273 > 100 µM | HOP-18 > 100 µM | M19-MEL > 100 µM | SNB-78 > 100 µM

C=C=C[P+](c1ccccc1)(c1ccccc1)c1ccccc1
inactive: DLD-1 5.61 µM | DMS-114 8.69 µM | DMS-273 27.6 µM | HOP-18 46.7 µM | M19-MEL 14.5 µM | SNB-78 16.9 µM

Cn1cnc([N+](=O)[O-])c1Sc1nnc(-c2cccnc2)n1C
inactive: DLD-1 18.8 µM | DMS-114 18.9 µM | DMS-273 80.2 µM | HOP-18 14.6 µM | Hs-578T 34.7 µM | M19-MEL 19.1 µM | SNB-78 21.4 µM | T47D 12.6 µM

O=C(c1ccc(NCN2C(=O)CCC2=O)cc1)c1ccc(NCN2C(=O)CCC2=O)cc1
inactive: DLD-1 > 100 µM | DMS-273 49.8 µM | M19-MEL > 100 µM | RXF 631 > 100 µM | SNB-78 > 100 µM

O=c1c(Cl)c(Cl)cnn1-c1ccccc1
inactive: DLD-1 1.44 µM and 2.35 µM | DMS-114 2.33 µM and 1.56 µM | HOP-18 8.53 µM and 5.19 µM | Hs-578T 1.54 µM and 2.56 µM | M19-MEL 3.05 µM and 3.13 µM | SNB-78 7.33 µM | T47D 4.33 µM and 2.44 µM

Cc1c2cnccc2c(C)c2c1c1ccccc1n2CCOC(=O)c1ccccc1
inactive: DLD-1 7.69 µM | DMS-114 9.51 µM | DMS-273 4.86 µM | HOP-18 20.7 µM | Hs-578T 30.1 µM | M19-MEL 13.9 µM | SNB-78 12.2 µM | T47D 30 µM

Brc1ccc(C[N+]23CN4CN(CN(C4)C2)C3)cc1
inactive: DLD-1 > 10 µM | DMS-114 23.6 µM | DMS-273 22.5 µM | M19-MEL 41.8 µM | SNB-78 83.2 µM

COC(=O)CCC(NC(=S)N/N=C/c1ccccn1)C(=O)OC (configuration not stated)
inactive: DLD-1 > 100 µM | DMS-114 > 100 µM | HOP-18 > 100 µM | M19-MEL > 100 µM | RXF 631 > 100 µM | SNB-78 > 100 µM

COc1cc2c(cc1O)[C@H](C)C(c1ccc(Cl)cc1)O2 (some centres not stated)
inactive: DLD-1 24.8 µM | DMS-114 13.9 µM | DMS-273 16.5 µM | HOP-18 36.2 µM | M19-MEL 15.8 µM | RXF 631 26 µM | SNB-78 21.3 µM

CN(C)[C@@H]1C(O)=C(C(N)=O)C(=O)[C@@]2(O)C(O)=C3C(=O)c4c(O)cccc4C[C@H]3C[C@@H]12
inactive: DLD-1 2.66 µM | DMS-114 2.52 µM | DMS-273 2.17 µM | HOP-18 1.79 µM | M19-MEL 1.68 µM

Cc1c(C(=O)CC(=O)C(=O)Nc2ccccc2C(F)(F)F)[n+]([O-])c2ccccc2[n+]1[O-]
inactive: DMS-114 11.5 µM | DMS-273 25.8 µM | HOP-18 2.2 µM | SNB-78 47.2 µM

CC1C[C@@H]2C(=O)NC(=O)[C@@H]2c2c1c1ccccc1n2C (some centres not stated)
inactive: DLD-1 > 100 µM | DMS-114 > 100 µM | DMS-273 > 100 µM | M19-MEL > 100 µM | RXF 631 > 100 µM | SNB-78 > 100 µM

COC(=O)c1ccc(CS(=O)(=O)c2ccccc2)cc1
inactive: DLD-1 91.8 µM | DMS-114 64.3 µM | DMS-273 45.4 µM | HOP-18 > 100 µM | M19-MEL 45.4 µM | RXF 631 > 100 µM | SNB-78 > 100 µM

COc1nc(=O)n(COC(CO)CN2C(=O)c3ccccc3C2=O)cc1Cc1cccc(OCc2ccccc2)c1 (configuration not stated)
inactive: DLD-1 28.3 µM | DMS-114 22 µM | DMS-273 19.4 µM | HOP-18 27.5 µM | M19-MEL 20.7 µM | SNB-78 31.6 µM

COc1ccc(C2=NN(c3ccccc3)C[N+](c3ccc(OC)cc3)=N2)cc1
inactive: DLD-1 28.8 µM | DMS-114 24.2 µM | DMS-273 24.5 µM | M19-MEL 30.5 µM | SNB-78 28.2 µM

O=C1OC(CC(=O)c2ccc(Cl)cc2)C(Cl)=C1Cl (configuration not stated)
inactive: DLD-1 52.6 µM | DMS-114 > 100 µM | DMS-273 > 100 µM | HOP-18 > 100 µM | M19-MEL > 100 µM

CN1N=C2c3ccccc3CC[C@H]2C1c1ccccc1 (some centres not stated)
inactive: DLD-1 41.8 µM | DMS-114 22.5 µM | DMS-273 26.6 µM | HOP-18 > 100 µM | M19-MEL 15.7 µM | SNB-78 83.9 µM

O=c1nc(NC(c2ccccc2)(c2ccccc2)c2ccccc2)ccn1CCO
inactive: DLD-1 39.6 µM | DMS-114 52.7 µM | HOP-18 > 100 µM | SNB-78 > 100 µM

CC12CCC(=O)N1[C@@H](c1ccccc1)[C@@H](c1ccccc1)O2 (some centres not stated)
inactive: DLD-1 44 µM | DMS-114 > 100 µM | M19-MEL > 100 µM

CCOC(=O)Cn1c(=O)n(C)c(=O)c2[nH]cnc21
inactive: DLD-1 > 100 µM | DMS-114 > 100 µM | DMS-273 > 100 µM | M19-MEL > 100 µM | SNB-78 > 100 µM

COc1ccccc1/C=C1\C(=O)N(C(=O)Cc2ccccc2)N=C1C
inactive: DLD-1 > 100 µM | DMS-114 > 100 µM | DMS-273 > 100 µM | HOP-18 13.1 µM | M19-MEL > 100 µM | SNB-78 > 100 µM

COc1ccc(/C(=N/NC(N)=O)C2(O)C(=O)Nc3ccc([N+](=O)[O-])cc32)cc1 (configuration not stated)
inactive: DLD-1 21.3 µM | DMS-114 19.7 µM | DMS-273 18.3 µM | M19-MEL 20.7 µM | SNB-78 17.8 µM

O=C(Cc1ccccc1)NN1C(=O)C(Cl)C1c1ccc([N+](=O)[O-])cc1 (configuration not stated)
inactive: DLD-1 > 100 µM | DMS-114 28.6 µM | DMS-273 > 100 µM | HOP-18 > 100 µM | M19-MEL > 100 µM | SNB-78 45.9 µM

O=C1CC(O)(c2ccccc2)C(c2ccccc2)=C1c1ccccc1 (configuration not stated)
inactive: DLD-1 44.2 µM | DMS-114 26.2 µM | DMS-273 34.6 µM | M19-MEL 29.6 µM | SNB-78 73.6 µM

CN1c2ccccc2N(C)C2C1N(C)c1ccccc1N2C (configuration not stated)
inactive: DLD-1 14.1 µM | DMS-114 5.71 µM | DMS-273 8.75 µM | M19-MEL 6.84 µM | RXF 631 37.1 µM | SNB-78 18.9 µM

CSc1nc2c(nc(C)c(=O)n2C2OCC(OC(C)=O)C(OC(C)=O)C2OC(C)=O)c(=O)[nH]1 (configuration not stated)
inactive: DLD-1 > 100 µM | DMS-114 > 100 µM | DMS-273 > 100 µM | M19-MEL > 100 µM
